Reference: patent US10662164B2, “Non-beta lactam antibiotics” (University of Notre Dame du Lac, priority 2014, dated 2020)
≈ marks a conversion by molar mass, not a printed value. Read-outs that look alike come from different tables or passages of the source.

What was measured:
E. faecium 106 (Van R) = test: MIC determination; format: cell-based; details: Enterococcus faecium; vancomycin-resistant clinical isolate; Tables 1 and 5; read-out: MIC
From the text: (§1) The ESKAPE organisms (E. faecium NCTC (ATCC 19734), S. aureus ATCC 29213, K. pneumonia ATCC 700603, A. baumannii ATCC 17961, P. aeruginosa ATCC 17853, E. aerogenes ATCC 35029) and E. coli ATCC 25922) in the initial screen, S. aureus ATCC 27660, S. epidermis ATCC 35547, S. haemolyticus ATCC 29970, S. oralis ATCC 9811, S. pyogenes ATCC 49399, B. cereus ATCC 13061, B. licheniformis ATCC 12759, and E. faecalis ATCC 29212 were purchased from the American Type Culture Collection (Manassas, Va., USA). S. aureus strains NRS100, NRS119, NRS120, VRS1, and VRS2 were obtained from the Network on Antimicrobial Resistance in Staphylococcus aureus (Chantilly, Va., USA). E. faecalis strains 201 and 99, and E. faecium strains 119-39A and 106 were collected from Wayne State University School of Medicine.
(§2) The procedure for MIC determination was the same as previously reported (Tran et al., Am. J. Clin. Dermatol. 2015; doi 10.1007/S40257-015-0125-9).

[1] = tested on: E. faecium 119-39A (Van S); test: MIC determination; format: cell-based; details: Enterococcus faecium
From the text: as §1, §2

S. aureus ATCC 27660 [2] = test: MIC determination; format: cell-based; details: Staphylococcus aureus, ATCC27660
From the text: as §1, §2

E. faecalis 201 (Van S) = test: MIC determination; format: cell-based; details: Enterococcus faecalis
From the text: as §1, §2

S. aureus NRS119 = test: MIC determination; format: cell-based; details: Staphylococcus aureus
From the text: as §1, §2

E. faecalis ATCC 29212 = test: MIC determination; format: cell-based; details: Enterococcus faecalis, ATCC29212
From the text: as §1, §2

[3] = tested on: B. licheniformis ATCC 12759; test: MIC determination; format: cell-based; details: Bacillus licheniformis, ATCC12759
From the text: as §1, §2

E. faecalis 99 (Van R) = test: MIC determination; format: cell-based; details: Enterococcus faecalis; vancomycin-resistant clinical isolate; Tables 1 and 5
From the text: as §1, §2

S. aureus VRS2 = test: MIC determination; format: cell-based; details: Staphylococcus aureus
From the text: as §1, §2

S. aureus NRS120 = test: MIC determination; format: cell-based; details: Staphylococcus aureus
From the text: as §1, §2

[4] = Plasma protein binding, equilibrium dialysis; details: 10 μM, 37° C., 6 h
Protocol: Protein binding for compounds 60b, 60c, 65b, 66b, 75b and 76b was determined in human plasma using equilibrium dialysis.
Plasma protein binding was determined using human plasma and a rapid equilibrium dialysis device (Pierce Biotechnology, Thermo Scientific, Waltham, Mass., USA). Human plasma was thawed and centrifuged at 1200 g for 10 min to remove particulates. A […] aliquot of human plasma was added to the sample chamber and 350 μL of 0.1 M phosphate buffered saline (pH 7.4) containing […] sodium chloride was added to the adjacent chamber. A 2-μL aliquot of a stock solution of the compounds at a concentration of 1 mM in DMSO was diluted with human plasma to a final drug concentration of 10 μM and added to the sample chamber. The compounds were dialyzed at 37° C. in an orbital shaker for 6 h. Aliquots (50 μL) were taken from the buffer chamber (representing the free concentration) and from the plasma chamber (representing the total concentration) and mixed with 100 μL of internal standard in acetonitrile to a final concentration of 5 μM. Samples were analyzed by UPLC with UV detection at 285 nm. The plasma protein binding ratio (B %) was calculated according to the following equation: B%=(Cp−Cf)/Cp×100 where Cp and Cf are the total plasma concentration and the free concentration of compound, respectively.

S. aureus ATCC 27660 [5] = test: Mouse peritonitis model of infection; format: in vivo; details: for Mouse peritonitis (survived/total): iv at 20 mg/kg at 30 min and 7.5 h after infection, survival at 48 h
Protocol: Compounds 60b, 60c, 65b, 66b, 75b and 76b were evaluated in the mouse peritonitis model of infection (Table 2). We used the ICR out-bred strain of mice that provides a heterogeneous population, similar to the human situation, thus, ensuring the relevance of the antibacterial effect. This animal model of infection is widely used, it is easy to carry out, and the end points (death or survival) are rapidly assessed, making it less resource-intensive compared to other infection models. In addition, excellent correlation between MIC and ED50 has been shown for 14 β-lactam antibiotics using this model (Kratochwil et al., Biochem. Pharmacol. 2002, 64, 1355). The mouse peritonitis infection model continues to be an important model for evaluation of the efficacy of antibiotics against human pathogens. We use the iv route of administration in initial efficacy studies, as this allows us to test the efficacy without knowledge of the oral bioavailability of the lead. Evaluation was done at 20 mg/kg.
Female ICR mice (6-8 weeks old, ˜20-g body weight) were used for the PK and peritonitis studies. Animals were purchased from Harlan Laboratories, Inc. (Indianapolis, Ind., USA) and given Teklad 2019 Extruded Rodent Diet and water ad libitum. Mice were maintained in polycarbonate shoebox cages with ¼″ corncob (The Andersons Inc., Maumee, Ohio) and Alpha-dri (Sheperd Specialty Papers, Inc., Richland, Mich.) bedding under 12-h light/12-h dark cycle at 72±2° F.
The mouse peritonitis model was used with S. aureus ATCC 27660, as described previously (Tran et al., Am. J. Clin. Dermatol. 2015; doi 10.1007/S40257-015-0125-9). The final bacterial inocula contained 5×10^7 cfu/mL and 5% mucin (Sigma-Aldrich Chemical Co., St Louis, Mo., USA). Just prior to inoculation, bacteria at 10^8 cfu/mL were mixed 1:1 with 10% mucin. Mice (n=6 per group) were given 0.5 mL of the bacterial inocula intraperitoneally. Mice were given two iv doses of the compounds at 30 min and 7.5 h after infection by tail vein injection. […] Mice were monitored for 48 h, at which time the number of surviving mice were counted.
The effective dose that results in survival of 50% of the mice was determined using Probit analysis (XLSTAT, New York, N.Y.). Groups of six mice per dose level were evaluated in the mouse peritonitis infection model at iv doses of 2.5, 5, 7.5, 10, 15, and 20 mg/kg and after po doses at 2.5, 5, 10, 20, and 40 mg/kg. […]

S. aureus ATCC 29213 = test: MIC determination; format: cell-based, Staphylococcus aureus; details: for MIC: Staphylococcus aureus
[6] = vancomycin-susceptible clinical isolate, Tables 1 and 5, read-out: MIC
[7] = mecA positive, resistant to methicillin, oxacillin, tetracycline, Tables 1 and 5, read-out: MIC
[8] = mecA positive, linezolid-resistant, Tables 1 and 5, read-out: MIC
[9] = quality-control strain, Tables 1 and 5, read-out: MIC
[10] = vancomycin-resistant MRSA (vanA) isolate from Pennsylvania, Tables 1 and 5, read-out: MIC
[11] = Staphylococcus aureus, ATCC27660, iv, 2 doses given at 30 min and 7.5 h after infection, read-out: ED50
[12] = Staphylococcus aureus, ATCC27660, po, single dose given at 1 h after infection, read-out: ED50
[13] = ATCC29213, Table 3.1 and SAR text, compounds of Schemes 2-4, read-out: S. aureus ATCC 29213 MIC
[14] = ATCC29213, quality-control, methicillin-susceptible strain, Tables 1 and 5, read-out: MIC

Structure (SMILES) | MIC (E. faecium 106 (Van R)) [µg/mL] | MIC [1, 6] [µg/mL] | MIC (S. aureus ATCC 27660 [2]; [7]) [µg/mL] | MIC (E. faecalis 201 (Van S); [6]) [µg/mL] | MIC (S. aureus NRS119; [8]) [µg/mL] | MIC (E. faecalis ATCC 29212; [9]) [µg/mL] | MIC ([3]; Tables 1 and 5, read-out: MIC) [µg/mL] | MIC (E. faecalis 99 (Van R)) [µg/mL] | MIC (S. aureus VRS2; [10]) [µg/mL] | MIC (S. aureus NRS120; [8]) [µg/mL] | Human plasma protein binding [4] [%] | MIC (S. aureus ATCC 29213; [13]) [µg/mL] | MIC (S. aureus ATCC 29213; [14]) [µg/mL] | Mouse peritonitis (survived/total) (S. aureus ATCC 27660 [5]) | further results
Oc1ccc(-c2nc(-c3ccc(Oc4ccc(C(F)(F)F)cc4)cc3)no2)cc1 [Compound 1] | 2 (≈ 5.02 µM) | 1 (≈ 2.51 µM) | 2 (≈ 5.02 µM) | 2 (≈ 5.02 µM) | 2 (≈ 5.02 µM) | 2 (≈ 5.02 µM) | 2 (≈ 5.02 µM) | 2 (≈ 5.02 µM) | 2 (≈ 5.02 µM) | 2 (≈ 5.02 µM) | 99.9 ± 0.1 | 1 (≈ 2.51 µM) | 2 (≈ 5.02 µM) | – | ED50 (S. aureus ATCC 27660 [5]; [11]): 40 mg/kg; ED50 (S. aureus ATCC 27660 [5]; [12]): 44 mg/kg
FC(F)(F)c1ccc(Oc2ccc(-c3noc(-c4n[nH]cc4Cl)n3)cc2)cc1 [Compound 60b, 5-(4-Chloro-1H-pyrazol-3-yl)-3-(4-(4-(trifluoromethyl)phenoxy)phenyl)-1,2,4-oxadiazole] | > 128 | > 128 | 2 (≈ 4.92 µM) | > 128 | – | > 128 | > 128 | > 128 | 0.5 to 1 (≈ 1.23 to 2.46 µM) | 64 (≈ 157 µM) | 97.8 ± 0.3 | 1 (≈ 2.46 µM) | – | 4/6 | –
Fc1ccc(Oc2ccc(-c3noc(-c4n[nH]cc4Cl)n3)cc2)cc1 [Compound 60c, 5-(4-Chloro-1H-pyrazol-3-yl)-3-(4-(4-fluorophenoxy)phenyl)-1,2,4-oxadiazole] | > 128 | > 128 | – | > 128 | 2 (≈ 5.61 µM) | > 128 | > 128 | > 128 | – | 64 (≈ 179 µM) | 94.5 ± 2.1 | 0.5 (≈ 1.4 µM) | 1 (≈ 2.8 µM) | 2/6 | –
CC(C)Nc1c[nH]nc1-c1nc(-c2ccc(Oc3ccc(C(F)(F)F)cc3)cc2)no1 [Compound 65b, N-Isopropyl-3-(3-(4-(4-(trifluoromethyl)phenoxy)phenyl)-1,2,4-oxadiazol-5-yl)-1H-pyrazol-4-amine] | – | – | – | – | – | – | – | – | – | – | 91.6 ± 0.3 | – | – | 1/6 | MIC [1]: > 128 µg/mL; MIC (S. aureus ATCC 27660 [2]): 0.5 µg/mL (≈ 1.16 µM); MIC (E. faecalis 201 (Van S)): > 128 µg/mL; MIC (S. aureus NRS119): 2 µg/mL (≈ 4.66 µM); MIC (E. faecalis ATCC 29212): > 128 µg/mL; MIC [3]: > 128 µg/mL; MIC (S. aureus VRS2; MRSA): 4 µg/mL (≈ 9.32 µM); MIC (S. aureus NRS120): > 128 µg/mL; MIC (S. aureus ATCC 29213; ATCC29213): 0.5 µg/mL (≈ 1.16 µM); MIC (S. aureus ATCC 29213; ATCC29213, read-out: S. aureus ATCC 29213 MIC): 0.5 µg/mL (≈ 1.16 µM)
C#Cc1c[nH]nc1-c1nc(-c2ccc(Oc3ccc(C(F)(F)F)cc3)cc2)no1 [Compound 66b, 5-(4-Ethynyl-1H-pyrazol-3-yl)-3-(4-(4-(trifluoromethyl)phenoxy)phenyl)-1,2,4-oxadiazole] | – | – | 0.5 (≈ 1.26 µM) | > 128 | 32 (≈ 80.7 µM) | > 128 | > 128 | > 128 | 0.5 (≈ 1.26 µM) | > 128 | 96.4 ± 2.7 | 0.25 (≈ 0.631 µM) | – | 2/6 | S. aureus ATCC 29213 MIC (S. aureus ATCC 29213; Table 3.1, compounds of Schemes 2-4): 0.25 µg/mL
FC(F)(F)c1ccc(Oc2ccc(-c3noc(-c4ccc5[nH]ccc5c4)n3)cc2)cc1 [Compound 75b, 5-(1H-Indol-5-yl)-3-(4-(4-(trifluoromethyl)phenoxy)phenyl)-1,2,4-oxadiazole] | – | – | – | – | – | – | – | 16 (≈ 38 µM) | – | – | 98.2±3.2 | 4 (≈ 9.49 µM) | 2 (≈ 4.75 µM) | 5/6 | ED50 (S. aureus ATCC 27660 [5]; [11]): 7.6 mg/kg; ED50 (S. aureus ATCC 27660 [5]; Staphylococcus aureus, ATCC27660, po, 2 doses given at 30 min and 7.5 h after infection, read-out: ED50): 1.7 mg/kg; ED50 (S. aureus ATCC 27660 [5]; [12]): 3.1 mg/kg; ED50 (S. aureus ATCC 27660 [5]; iv, 2 doses given at 30 min and 7.5 h after infection): 7.6 mg/kg; ED50 (S. aureus ATCC 27660 [5]; po, 2 doses given at 30 min and 7.5 h after infection): 1.7 mg/kg; ED50 (S. aureus ATCC 27660 [5]; po, single dose given at 1 h after infection): 3.1 mg/kg; ED50, fold better than that of 1 (S. aureus ATCC 27660 [5]; single po dose given at 1 h after infection): 14 fold
FC(F)(F)c1ccc(Oc2ccc(-c3noc(-c4c[nH]cn4)n3)cc2)cc1 [Compound 76b, 5-(1H-Imidazol-4-yl)-3-(4-(4-(trifluoromethyl)phenoxy)phenyl)-1,2,4-oxadiazole] | – | – | – | – | – | – | – | – | – | – | 93.5 ± 2.4 | 2 (≈ 5.37 µM) | – | 3/6 | –
